Earlier results, collected in patent publication US11718625B2, “Near-infrared fluorescent molecule active targeting folate receptor and preparation method thereof” (NANJING NUOYUAN MEDICAL DEVICES CO., LTD, priority 2020, dated 2023).

Assays:
tumor = conditions: clinical practice
[1] = at maximum injection dosage less than 2 mg/kg; literature report and own detection data

CC1(C)C(/C=C/C=C/C=C/C=C2\N(CCCCS(=O)(=O)O)c3ccc4ccccc4c3C2(C)C)=[N+](CCCCS(=O)(=O)[O-])c2ccc3ccccc3c21 [ICG, Indocyanine green]
waiting time to generate sufficient fluorescence contrast (tumor: normal tissue) (tumor): at least 12 hours
quantum yield (in an aqueous solution): less than 1%
wavelength of emitted fluorescence (under irradiation with the wavelength of 780 nm): 830 nm
concentration of the ICG in the human body tumors [1]: 10 to 1000 nM
